Source: PubChem BioAssay (NCI)
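In this assay, cells in 96-well plates receive the compound at five concentrations for 48 hours. Endpoints are linearly interpolated between the surrounding concentrations. Here, GI50 denotes the concentration required for 50% inhibition of growth. At the TGI there is no net growth.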

What was measured:
Assay in all cases: DTP human tumour cell line panel, 48 h
A549 NSCLC = system: A549 NSCLC
CCRF-CEM leukemia = system: CCRF-CEM leukemia
NCI/ADR-RES ovarian = system: NCI/ADR-RES ovarian
COLO 205 colon = system: COLO 205 colon
NCI-H226 lung = system: NCI-H226 lung
SN12C renal = system: SN12C renal
MDA-MB-435 = system: MDA-MB-435
U251 CNS = system: U251 CNS
HOP-92 NSCLC = system: HOP-92 NSCLC
K-562 leukemia = system: K-562 leukemia
786-0 renal = system: 786-0 renal
MOLT-4 leukemia = system: MOLT-4 leukemia
NCI-H23 lung = system: NCI-H23 lung
NCI-H522 lung = system: NCI-H522 lung
SK-MEL-5 melanoma = system: SK-MEL-5 melanoma
RPMI-8226 leukemia = system: RPMI-8226 leukemia
HCC-2998 colon = system: HCC-2998 colon
CAKI-1 renal = system: CAKI-1 renal
LOX IMVI melanoma = system: LOX IMVI melanoma
UACC-62 melanoma = system: UACC-62 melanoma
NCI-H460 lung = system: NCI-H460 lung
MALME-3M melanoma = system: MALME-3M melanoma
HT29 colon = system: HT29 colon
HS 578T breast = system: HS 578T breast
A498 renal = system: A498 renal
OVCAR-3 ovarian = system: OVCAR-3 ovarian
HCT-116 colon = system: HCT-116 colon
IGROV1 ovarian = system: IGROV1 ovarian
HOP-62 NSCLC = system: HOP-62 NSCLC
MCF7 breast = system: MCF7 breast
OVCAR-8 ovarian = system: OVCAR-8 ovarian
SK-MEL-28 melanoma = system: SK-MEL-28 melanoma
EKVX NSCLC = system: EKVX NSCLC
OVCAR-5 ovarian = system: OVCAR-5 ovarian
TK-10 renal = system: TK-10 renal
SNB-75 CNS = system: SNB-75 CNS
T-47D breast = system: T-47D breast
OVCAR-4 ovarian = system: OVCAR-4 ovarian
SF-539 CNS = system: SF-539 CNS
SNB-19 CNS = system: SNB-19 CNS
SK-OV-3 ovarian = system: SK-OV-3 ovarian
SR leukemia = system: SR leukemia
SF-295 CNS = system: SF-295 CNS
UACC-257 melanoma = system: UACC-257 melanoma
BT-549 breast = system: BT-549 breast
HCT-15 colon = system: HCT-15 colon
ACHN renal = system: ACHN renal
SW-620 colon = system: SW-620 colon
DU-145 prostate = system: DU-145 prostate
HL-60(TB) leukemia = system: HL-60(TB) leukemia
SF-268 CNS = system: SF-268 CNS
PC-3 prostate = system: PC-3 prostate
M14 melanoma = system: M14 melanoma
SK-MEL-2 melanoma = system: SK-MEL-2 melanoma
UO-31 renal = system: UO-31 renal
MDA-MB-231 breast = system: MDA-MB-231 breast
KM12 colon = system: KM12 colon

CCN(CC)CCOc1ccc(C(=C(c2ccccc2)C2CCCC2)c2ccc(OCCN(CC)CC)cc2)cc1
GI50 (A549 NSCLC): 6.46 µM | TGI (A549 NSCLC): > 16.3 µM | GI50 (CCRF-CEM leukemia): 4.52 µM | TGI (CCRF-CEM leukemia): > 16.3 µM | GI50 (NCI/ADR-RES ovarian): > 16.3 µM | TGI (NCI/ADR-RES ovarian): > 16.3 µM | GI50 (COLO 205 colon): 3.2 µM | TGI (COLO 205 colon): 7.63 µM | GI50 (NCI-H226 lung): 6.58 µM | TGI (NCI-H226 lung): > 16.3 µM | GI50 (SN12C renal): 5.28 µM | TGI (SN12C renal): > 16.3 µM | GI50 (MDA-MB-435): 3.19 µM | TGI (MDA-MB-435): 7.45 µM | GI50 (U251 CNS): 3.85 µM | TGI (U251 CNS): 12.5 µM | GI50 (HOP-92 NSCLC): 1330 nM | TGI (HOP-92 NSCLC): 6.89 µM | GI50 (K-562 leukemia): 5.57 µM | TGI (K-562 leukemia): > 16.3 µM | GI50 (786-0 renal): 12.2 µM | TGI (786-0 renal): > 16.3 µM | GI50 (MOLT-4 leukemia): 4.47 µM | TGI (MOLT-4 leukemia): 13.3 µM | GI50 (NCI-H23 lung): 5.64 µM | TGI (NCI-H23 lung): > 16.3 µM | GI50 (NCI-H522 lung): 6.3 µM | TGI (NCI-H522 lung): > 16.3 µM | GI50 (SK-MEL-5 melanoma): 5.31 µM | TGI (SK-MEL-5 melanoma): > 16.3 µM | GI50 (RPMI-8226 leukemia): 2770 nM | TGI (RPMI-8226 leukemia): 10.7 µM | GI50 (HCC-2998 colon): 4.62 µM | TGI (HCC-2998 colon): > 16.3 µM | GI50 (CAKI-1 renal): > 16.3 µM | TGI (CAKI-1 renal): > 16.3 µM | GI50 (LOX IMVI melanoma): 4.45 µM | TGI (LOX IMVI melanoma): 14.7 µM | GI50 (UACC-62 melanoma): 3.92 µM | TGI (UACC-62 melanoma): 11.1 µM | GI50 (NCI-H460 lung): 4.84 µM | TGI (NCI-H460 lung): > 16.3 µM | GI50 (MALME-3M melanoma): 3.57 µM | TGI (MALME-3M melanoma): 10.3 µM | GI50 (HT29 colon): 3.82 µM | TGI (HT29 colon): 10.4 µM | GI50 (HS 578T breast): 3.64 µM | TGI (HS 578T breast): 12.8 µM | GI50 (A498 renal): > 16.3 µM | TGI (A498 renal): > 16.3 µM | GI50 (OVCAR-3 ovarian): 3.07 µM | TGI (OVCAR-3 ovarian): 6.54 µM | GI50 (HCT-116 colon): 4.89 µM | TGI (HCT-116 colon): > 16.3 µM | GI50 (IGROV1 ovarian): 3.49 µM | TGI (IGROV1 ovarian): 7.66 µM | GI50 (HOP-62 NSCLC): 9.41 µM | TGI (HOP-62 NSCLC): > 16.3 µM | GI50 (MCF7 breast): 2530 nM | TGI (MCF7 breast): 5.01 µM | GI50 (OVCAR-8 ovarian): 6.88 µM | TGI (OVCAR-8 ovarian): > 16.3 µM | GI50 (SK-MEL-28 melanoma): 6.5 µM | TGI (SK-MEL-28 melanoma): > 16.3 µM | GI50 (EKVX NSCLC): 7.53 µM | TGI (EKVX NSCLC): > 16.3 µM | GI50 (OVCAR-5 ovarian): 6.13 µM | TGI (OVCAR-5 ovarian): > 16.3 µM | GI50 (TK-10 renal): > 16.3 µM | TGI (TK-10 renal): > 16.3 µM | GI50 (SNB-75 CNS): 4.58 µM | TGI (SNB-75 CNS): > 16.3 µM | GI50 (T-47D breast): 5.6 µM | TGI (T-47D breast): > 16.3 µM | GI50 (OVCAR-4 ovarian): 5.35 µM | TGI (OVCAR-4 ovarian): > 16.3 µM | GI50 (SF-539 CNS): 5.51 µM | TGI (SF-539 CNS): > 16.3 µM | GI50 (SNB-19 CNS): 4.96 µM | TGI (SNB-19 CNS): > 16.3 µM | GI50 (SK-OV-3 ovarian): 7.95 µM | TGI (SK-OV-3 ovarian): > 16.3 µM | GI50 (SR leukemia): 3.29 µM | TGI (SR leukemia): 7.88 µM | GI50 (SF-295 CNS): 5.77 µM | TGI (SF-295 CNS): > 16.3 µM | GI50 (UACC-257 melanoma): 5.09 µM | TGI (UACC-257 melanoma): > 16.3 µM | GI50 (BT-549 breast): 2270 nM | TGI (BT-549 breast): 6.04 µM | GI50 (HCT-15 colon): > 16.3 µM | TGI (HCT-15 colon): > 16.3 µM | GI50 (ACHN renal): > 16.3 µM | TGI (ACHN renal): > 16.3 µM | GI50 (SW-620 colon): 5.05 µM | TGI (SW-620 colon): > 16.3 µM | GI50 (DU-145 prostate): 7.97 µM | TGI (DU-145 prostate): > 16.3 µM | GI50 (HL-60(TB) leukemia): 3.13 µM | TGI (HL-60(TB) leukemia): 7.14 µM | GI50 (SF-268 CNS): 5.35 µM | TGI (SF-268 CNS): > 16.3 µM | GI50 (PC-3 prostate): 6.16 µM | TGI (PC-3 prostate): > 16.3 µM | GI50 (M14 melanoma): 7.22 µM | TGI (M14 melanoma): > 16.3 µM | GI50 (SK-MEL-2 melanoma): 5.49 µM | TGI (SK-MEL-2 melanoma): > 16.3 µM | GI50 (UO-31 renal): > 16.3 µM | TGI (UO-31 renal): > 16.3 µM | GI50 (MDA-MB-231 breast): 4.57 µM | TGI (MDA-MB-231 breast): 15.6 µM | GI50 (KM12 colon): 2810 nM | TGI (KM12 colon): 5.28 µM
